In the supplement of paper PMC13380429:

Experiments:
Conditions in all cases: 72 h
[1] = tested on: Calu-3; test: drug sensitivity score (DSS) for viability; higher = more toxic; extreme values may be limits of the assay
[2] = tested on: Caco-2; test: as above
[3] = tested on: U2OS; test: as above
[4] = tested on: HepG2; test: as above
[5] = tested on: Vero E6; test: as above
[6] = tested on: Calu-3; test: cell viability relative to DMSO; higher = less toxic
[7] = tested on: Caco-2; test: as above
[8] = tested on: U2OS; test: as above
[9] = tested on: HepG2; test: as above
[10] = tested on: Vero E6; test: as above
[11] = tested on: U2OS; test: relative viability EC50 (midpoint between 100% and the lowest measured viability); higher = less toxic
[12] = tested on: HepG2; test: as above
[13] = tested on: Vero E6; test: as above
[14] = tested on: Caco-2; test: as above
[15] = tested on: Calu-3; test: as above

| SMILES | drug sensitivity score [1] | drug sensitivity score [2] | drug sensitivity score [3] | drug sensitivity score [4] | drug sensitivity score [5] | cell viability ([6]; 1 nM) [%] | cell viability ([6]; 10 nM) [%] | cell viability ([6]; 100 nM) [%] | cell viability ([6]; 1000 nM) [%] | cell viability ([6]; 10000 nM) [%] | cell viability ([7]; 1 nM) [%] | cell viability ([7]; 10 nM) [%] | cell viability ([7]; 100 nM) [%] | cell viability ([7]; 1000 nM) [%] | cell viability ([7]; 10000 nM) [%] | cell viability ([8]; 1 nM) [%] | cell viability ([8]; 10 nM) [%] | cell viability ([8]; 100 nM) [%] | cell viability ([8]; 1000 nM) [%] | cell viability ([8]; 10000 nM) [%] | cell viability ([9]; 1 nM) [%] | cell viability ([9]; 10 nM) [%] | cell viability ([9]; 100 nM) [%] | cell viability ([9]; 1000 nM) [%] | cell viability ([9]; 10000 nM) [%] | cell viability ([10]; 1 nM) [%] | cell viability ([10]; 10 nM) [%] | cell viability ([10]; 100 nM) [%] | cell viability ([10]; 1000 nM) [%] | cell viability ([10]; 10000 nM) [%] | relative viability EC50 [11] [µM] | relative viability EC50 [12] [µM] | relative viability EC50 [13] [µM] | relative viability EC50 [14] [µM] | relative viability EC50 [15] [µM] |
| --- | --- | --- | --- | --- | --- | --- | --- | --- | --- | --- | --- | --- | --- | --- | --- | --- | --- | --- | --- | --- | --- | --- | --- | --- | --- | --- | --- | --- | --- | --- | --- | --- | --- | --- | --- |
| Nc1nccc(-c2c(-c3ccc(F)cc3)ncn2C2CCCCC2)n1 | 3.7 | 2.3 | 0.6 | 4.3 | 0.4 | 91.1 | 100 | 105 | 87 | 62.1 | 102 | 96.2 | 97.3 | 85.2 | 74.8 | 98.2 | 102 | 103 | 95.5 | 85 | 97.8 | 99.7 | 100 | 92.4 | 43.3 | 105 | 103 | 99.2 | 108 | 79.8 | > 10 | 2.08 | > 10 |  |  |
| O=C1c2ccccc2-n2c1nc1ccccc1c2=O [tryptanthrin] |  | 0.4 | 0 | 3.5 | 0 |  |  |  |  |  | 101 | 107 | 110 | 104 | 79.7 | 96.5 | 97.7 | 101 | 102 | 97.7 | 88.7 | 87.5 | 90.7 | 98.2 | 40.5 | 104 | 99.6 | 101 | 95.7 | 96.9 | > 10 | 2.94 | > 10 | > 10 |  |
| CN[C@@H]1[C@H](O)[C@H](NC)[C@H]2O[C@@]3(O)C(=O)C[C@@H](C)O[C@H]3O[C@@H]2[C@H]1O [spectinomycin] | 0 | 0 | 0 | 0 | 1.2 | 92.2 | 100 | 105 | 103 | 88.7 | 100 | 102 | 99.4 | 109 | 91.9 | 101 | 107 | 100 | 102 | 98.5 | 88.4 | 105 | 98.7 | 106 | 96.7 | 56 | 108 | 55.1 | 108 | 59.1 | > 10 | > 10 |  | > 10 | > 10 |
| NC(=O)CN1C=CCC(C(N)=O)=C1 [caricotamide] |  | 0 |  | 0 | 0 |  |  |  |  |  | 113 | 103 | 103 | 97.7 | 104 |  |  |  |  |  | 93.2 | 103 | 104 | 116 | 106 | 101 | 95.4 | 99.5 | 99 | 101 |  | > 10 | > 10 | > 10 |  |
| C/C(=C\c1csc(C)n1)[C@@H]1C[C@@H]2O[C@]2(C)CCC[C@H](C)[C@H](O)[C@@H](C)C(=O)C(C)(C)[C@@H](O)CC(=O)O1 [epothilone-B] | 19 | 24 | 33.1 | 37.2 | 29.5 | 91.8 | 66 | 53.8 | 54.7 | 59.3 | 79.8 | 54.2 | 47.6 | 52.8 | 50.6 | 50.3 | 39.9 | 23.9 | 30.7 | 44.3 | 52.3 | 29.7 | 18.4 | 19.8 | 32 | 77.6 | 48.9 | 29.9 | 35.7 | 45.4 | < 0.001 | < 0.001 | 0.0026 | 0.0016 |  |
| CSC[C@H](N)C(=O)O [S-methylcysteine] |  | 0 | 0 | 0 | 0 |  |  |  |  |  | 79.7 | 105 | 86.5 | 101 | 97.3 | 101 | 98.7 | 104 | 98.1 | 102 | 89.3 | 100 | 95.6 | 92.3 | 99.3 | 92.8 | 93.6 | 97.1 | 96.3 | 105 | > 10 | > 10 | > 10 | > 10 |  |
| CSc1nc(-c2ccc(F)cc2)c(-c2ccnc(N[C@@H](C)c3ccccc3)c2)[nH]1 [ML3403] | 0 | 1.9 | 0 | 0.1 | 0 | 101 | 99.1 | 103 | 94.5 | 89.8 | 94.6 | 93.4 | 97.3 | 94.2 | 74.2 | 99.9 | 99.1 | 100 | 94.8 | 90.9 | 100 | 101 | 97.6 | 105 | 86.5 | 102 | 105 | 101 | 99.8 | 88.7 | > 10 | > 10 | > 10 |  | > 10 |
| CO[C@H]1/C=C/O[C@@]2(C)Oc3c(C)c(O)c4c(O)c(c(/C=N/N5CCN(C)CC5)c(O)c4c3C2=O)NC(=O)/C(C)=C\C=C\[C@H](C)[C@H](O)[C@@H](C)[C@@H](O)[C@@H](C)[C@H](OC(C)=O)[C@@H]1C [rifampin] | 0 | 0 | 0.3 | 0.1 | 1.2 | 99.5 | 99.6 | 98.7 | 99.8 | 102 | 88.9 | 88.7 | 90.8 | 88.5 | 105 | 96 | 105 | 98.2 | 97.2 | 86.9 | 97.9 | 102 | 104 | 89.4 | 92.4 | 68.7 | 97.8 | 70.2 | 103 | 64.7 | > 10 | > 10 |  | > 10 | > 10 |
| C=C1CC[C@H](O)C/C1=C/C=C1\CCC[C@]2(C)[C@@H]([C@H](C)/C=C/[C@H](C)C(C)C)CC[C@@H]12 [ergocalciferol] | 0 |  | 0 | 0 | 0 | 86.5 | 89.2 | 80.2 | 108 | 104 |  |  |  |  |  | 99.3 | 99.6 | 96.2 | 100 | 94.3 | 114 | 99.3 | 112 | 97.5 | 93 | 102 | 105 | 96.2 | 93.6 | 101 | > 10 | > 10 | > 10 |  | > 10 |
| CCc1ccc(C2=CC(C)(C)Sc3ccc(C#Cc4ccc(C(=O)O)cc4)cc32)cc1 | 0 | 0.6 | 0 | 2.9 | 6.1 | 90.9 | 113 | 95.5 | 94.6 | 95.2 | 100 | 103 | 97.7 | 100 | 79.4 | 101 | 102 | 96.6 | 104 | 93.2 | 94.7 | 89.7 | 83.7 | 80.6 | 90.1 | 98.5 | 89.8 | 81.2 | 74.9 | 80.6 | > 10 | > 10 |  | > 10 | > 10 |
| COC(=O)c1cc2c(C(F)(F)F)cc(-c3ccccc3)cc2n1O [NHI-2] |  | 0 | 0 | 0 | 0 |  |  |  |  |  | 106 | 90.2 | 102 | 90.1 | 91.2 | 103 | 98.1 | 102 | 97.1 | 101 | 95.1 | 103 | 110 | 98.2 | 99.3 | 104 | 104 | 98.8 | 101 | 97.5 | > 10 | > 10 | > 10 | > 10 |  |
| Oc1cc2c(cc1O)[C@H]1c3ccccc3CN[C@@H]1CC2 (racemic) [dihydrexidine] |  | 0 | 0 | 0 | 0 |  |  |  |  |  | 102 | 97.7 | 99.6 | 92.6 | 97.9 | 101 | 93.2 | 104 | 96.9 | 104 | 83.4 | 95.8 | 90.9 | 93.2 | 82.1 | 96.7 | 96.7 | 96.8 | 97.6 | 104 | > 10 | > 10 | > 10 | > 10 |  |
| CN(C)CCOC1=Cc2ccccc2Sc2ccc(Cl)cc21 [zotepine] | 0.4 | 0 | 0 | 4.3 | 2.2 | 101 | 85.3 | 93.3 | 104 | 80.8 | 92.4 | 84.1 | 91.9 | 90.7 | 75.7 | 104 | 97.2 | 97.7 | 91.5 | 92.4 | 104 | 95 | 98.7 | 91.8 | 45.7 | 99.4 | 93.6 | 98.6 | 94.1 | 70.4 | > 10 | 1.98 |  | > 10 | > 10 |
| CCCCCOc1ccc(-c2cc(-c3ccc(C(=O)N[C@H]4C[C@@H](O)[C@@H](O)NC(=O)[C@@H]5[C@@H](O)[C@@H](C)CN5C(=O)[C@H]([C@H](O)CC(N)=O)NC(=O)[C@H]([C@H](O)[C@@H](O)c5ccc(O)c(OS(=O)(=O)O)c5)NC(=O)[C@@H]5C[C@@H](O)CN5C(=O)[C@H]([C@@H](C)O)NC4=O)cc3)no2)cc1 [micafungin] | 0 |  | 0 | 0 | 0 | 106 | 108 | 98.3 | 99.4 | 115 |  |  |  |  |  | 104 | 102 | 103 | 101 | 99.4 | 98.4 | 117 | 106 | 81.8 | 109 | 99.2 | 101 | 106 | 97.2 | 92.9 | > 10 | > 10 | > 10 |  | > 10 |
